Marks after values point to notes of the source that are not given here.
Columns and labels:
[1] = test system: carrageenan-induced Paw edema; test: carrageenan-induced paw edema (CPE) model in mice; assay type: in vivo, CD-1 mice; details: for activity at 2 hours: 2 hours after carrageenan
Text: This test is a rapid in vivo model for evaluation of anti-inflammatory efficacy of test articles. The CPE model in mice quantitativdy assesses inhibition of edema enduced by subplantarinjection of carrageenan. […] Carrageenan-induced inflammation invoves extravasation of polymorphonuclear leukocytes from circulation to the site of inflammation. The subsequent release of myeloperoxidase and other cytokines within the interstitial tissues results in plasma exudation into the site of inflammation. The increased paw volume is measured by water displacement. Anti-inflammatory drugs reduce the paw edema.
• 1. Receive (SOP 1910, SOP 1920) and quarantine (SOP 560) 125 CD-1 mice (Charles River Laboratories, male, 5-6 weeks old). • 2. Animals are ear tagged (SOP 810), weighed, and sorted into 9 groups with 10 animals/group and 5 groups of 7 animals/group based upon average body weight. • 3. Prepare 3% carrageenan solution: • 1) Preparation at least 2 weeks in advance of use. • 2) Weigh out 600 mg A-carrageenan into a glass beaker. • 3) Add 20 ml deionized water. • 4) Stir on mild heat until carrageenan fully dissolved. • 5) Cool solution to ambient temperature. • 6) Store at 4-8° C. • 4. Until the day of use the renalase peptides are stored at -20° C. as dry powder. • 5. DAY 0 • a. Prepare test material in sterile saline (vehicle). • b. On the day of dosing, renalase peptides are dissolved. • c. On day prior to administration check carrageenan solution for clarity (no visible evidence of contamination). • 1) Equilibrate carrageenan to ambient temperature. • d. Record mouse weights in laboratory notebook. • e. Measure and record paw initial paw volumes: • 1) Place beaker of water on balance and tare to zero. • 2) Place right hind limb in the beaker of water on the scale with the top of the hock centered in the meniscus of the water. Record read-out on the scale. • 3) The foot must be dried after each measurement as wet feet will change the readout. • 4) Re-tare the scale between measurements to account for decrease in water volume. • f. […]
The test was also conducted to compare the inhibition of inflammation by peptide 10 as compared to the corresponding peptide fragment without the alanine substitution at position 220 (peptide 81).

[2] = test system: cisplatin induced kidney injury; test: cisplatin-induced kidney injury in vivo
Text: A key measure of this toxicity is a decrease in kidney mass; this is limited when Renalase A (205-240)-OH is given. More dramatic is the effect of peptide on the reduced renal function seen with cisplatin induced renal injury.

acute pancreatitis = test: experimental acute pancreatitis (AP), mouse model; assay type: in vivo
Text: This likely represents inhibition of inflammatory pathways central to AP pathogenesis; a probable target is inflammatory activation (FIG. 5). Since most patients with AP present long after disease onset and later onset responses are most important in determining AP severity, the beneficial effects of peptide 10 should be therapeutically valuable even late in the course of disease. In this context we have shown that RNLS agonists reduce injury when given 2 hrs after the onset of cerulein AP and 12hrs after the induction of arginine AP.

[3] = test system: cultured proximal renal tubule cell line; test: cisplatin-induced injury of cultured kidney cells; assay type: cell-based
Text: We have shown that a peptide of the invention [Ala^220]-Ac-Renalase A (205-240)-NH2 eliminated cisplatin-induced injury of cultured kidney cells. […] Data are shown below for such RNLS agonists

[4] = test system: renal ischemia reperfusion injury; test: renal ischemia reperfusion injury, preclinical murine model; assay type: in vivo
[5] = test system: blood from healthy donors; assay type: cell-based
[6] = test system: cerulin-induced severe pancreatitis; test: cerulin-induced severe pancreatitis model; assay type: in vivo; details: FIG. 13
cronin 1 = test: levels of cronin 1, marker for inflammatory cells; details: FIG. 14
COVID-19 mouse model = test: COVID-19 mouse model, survival; details: FIG. 11
severe viral infection = test: model of severe viral infection in renalase-deficient mice; details: FIG. 12
[7] = 10 mpk, * = statistical significance
[8] = peptide at 50 ug/ml, 3 hrs incubation, ELISA, p<0.01

C[C@@H]1C[C@H]2[C@@H]3CCC4=CC(=O)C=C[C@]4(C)[C@@]3(F)[C@@H](O)C[C@]2(C)[C@@]1(O)C(=O)CO [Dexamethasone, reference compound]
percent change from control, paw edema, 2 hr after carrageenan [1, 7]: 51.2* percent | percent change from control, paw edema, 4 hr after carrageenan ([1]; 10 mpk): 49.7* percent | percent change from control, paw edema, 10 hr after carrageenan ([1]; 10 mpk): 55.6* percent

COc1ccc2c(c1)c(CC(=O)O)c(C)n2C(=O)c1ccc(Cl)cc1 [Indomethacin, reference compound]
percent change from control, paw edema, 2 hr after carrageenan ([1]; 5 mpk): 79.4* percent | percent change from control, paw edema, 4 hr after carrageenan ([1]; 5 mpk): 60.3* percent | percent change from control, paw edema, 6 hr after carrageenan ([1]; 5 mpk): 42.4* percent | percent change from control, paw edema, 10 hr after carrageenan ([1]; 5 mpk): 21.3%

Renalase A (205-240)-OH [Peptide 81]
percent change from control, paw edema, 2 hr after carrageenan ([1]; 3 mpk): 14.2% | percent change from control, paw edema, 4 hr after carrageenan ([1]; 3 mpk): 1.6% | percent change from control, paw edema, 6 hr after carrageenan ([1]; 3 mpk): −13.1% | percent change from control, paw edema, 10 hr after carrageenan ([1]; 3 mpk): 2.4% | percent change from control, paw edema, 2 hr after carrageenan [1, 7]: 62.6* percent | percent change from control, paw edema, 4 hr after carrageenan ([1]; 10 mpk): 0.5% | percent change from control, paw edema, 6 hr after carrageenan ([1]; 10 mpk): 2.9% | percent change from control, paw edema, 10 hr after carrageenan ([1]; 10 mpk): 13.3% | activity at 2 hours [1]: active | plasma creatinine levels ([2]; 17 days of cisplatin treatment (4-fold increase without agonist), FIG. 4 right panel): reduced this toward the normal range | kidney injury after cisplatin-induced treatment ([2]; FIG. 4): reduces kidney injury | decrease in kidney mass ([2]; cisplatin toxicity, FIG. 4): limited

[Ala^220]-Ac-Renalase A (205-240)-NH2 (KIDVPWAGQYITSNPAIRFVSIDNKKRNIESSEIGP; N-acetyl, C-terminal amide; Based on homo sapiens sequence) [peptide 10]
anti-inflammatory effect on paw edema ([1]; 0.3-30 mg/kg SC 30 min prior to carrageenan, test period of 10 hours, FIGS. 6 and 7): has an anti-inflammatory effect | activity at 2 hours [1]: active | activity and duration of activity compared with peptide 81 ([1]; comparable but different experiments, same protocols): more active and longer active than peptide 81 | activity for longer periods of time ([1]; later than 2 hours): only peptide 10 was active | activity compared with standards ([1]; versus dexamethasone and indomethacin): activity more in line with standards dexamethasone and indomethacin | injury in acute pancreatitis (acute pancreatitis; FIG. 2): reduces injury | earliest AP responses (acinar cell related) (acute pancreatitis; earliest responses, not shown): no effects | levels of active trypsin (acute pancreatitis; later responses (6 hrs), FIG. 2A): tended to reduce | tissue neutrophils (acute pancreatitis; later responses (6 hrs), FIG. 2B): dramatically decrease | mitochondrial injury as determined by OPA-1 and Parkin levels (acute pancreatitis; later responses (6 hrs), FIG. 2C, D): reduced | cisplatin-induced injury of cultured kidney cells [3]: eliminated | injury in a cultured proximal renal tubule cell line ([3]; FIG. 3): reduces injury | renal ischemia reperfusion injury [4]: reduced | inflammatory response to SARS-CoV-2 peptides ([5]; FIG. 5): decreases | SARS-CoV-2-peptide induced increase of IL1-beta [5, 8]: inhibited | SARS-CoV-2-peptide induced increase of IL6 [5, 8]: inhibited | SARS-CoV-2-peptide induced increase of TNF-alpha [5, 8]: inhibited | SARS-CoV-2 peptide S and M induced levels of interferon-gamma ([5]; peptide at 50 ug/ml, SARS-CoV-2 peptides 0.19 nM, 3 hrs incubation, ELISA): dramatically decreased | necrosis [6]: effective in reducing necrosis | levels of cronin 1 (cronin 1): decreases | survival (COVID-19 mouse model): improves survival | protection in severe viral infection (severe viral infection): protects
